Laboratory results: patent US5529984A, “Endoparasiticidal compositions based on open-chain hexadepsipeptides” (Bayer Aktiengesellschaft, priority 1993, dated 1996)

Tested on: Haemonchus contortus
Assay: In vivo nematode test Haemonchus contortus/sheep
Details: sheep infected experimentally with Haemonchus contortus; pure active compound orally and/or intravenously; dose after which egg excretion with the faeces has stopped completely
Procedure: Haemonchus contortus/sheep
Sheep infected experimentally with Haemonchus contortus were treated after the prepatency period of the parasite had elapsed. The active compounds were administered orally and/or intravenously in the form of the pure active compound.
The degree of effectiveness is determined by quantitatively determining the nematode eggs excreted with the faeces before and after the treatment.
If egg excretion has stopped completely after the treatment, this means that the nematodes were aborted or are damaged to such an extent that they no longer produce eggs (Dosis effective).
Active compounds which have been tested and effective dosage rates (Dosis effective) can be seen from the table which follows: […]

SMILES: CCC(C)C(C(=O)OC(C)C(=O)N(C)C(C(=O)OC(C)C(=O)N(C)C(C(=O)OC(C)C(=O)O)C(C)CC)C(C)CC)N(C)C(=O)OCc1ccccc1 [Example 3, N-Benzyloxycarbonyl-N-methyl-L-isoleucyl-D -lactyl-N-methyl-L-isoleucyl-D-lactyl-N-methyl-n-isoleucyl-D-lactic acid]
- Dosis effective: 10 mg/kg
